Assay results from US20100280024A1, “RENIN INHIBITORS” (priority 2007, published 2010).
Where a name gives a salt, the structure may show the parent alone.

Biological target: T1, Renin (Homo sapiens, UniProt P00797)
T1 sequence (P00797 67-406): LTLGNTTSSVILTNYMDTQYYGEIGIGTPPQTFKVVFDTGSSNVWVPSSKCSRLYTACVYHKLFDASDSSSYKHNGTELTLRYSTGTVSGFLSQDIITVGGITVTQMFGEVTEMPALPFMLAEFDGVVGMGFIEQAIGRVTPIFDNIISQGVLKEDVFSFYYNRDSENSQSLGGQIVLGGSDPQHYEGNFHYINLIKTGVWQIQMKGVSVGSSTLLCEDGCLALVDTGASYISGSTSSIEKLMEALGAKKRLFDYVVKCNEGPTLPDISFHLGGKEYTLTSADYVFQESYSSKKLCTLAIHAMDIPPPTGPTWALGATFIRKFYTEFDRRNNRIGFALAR
Experiment: In-vitro renin inhibition assay (modified Cayman renin inhibitor screening assay, fluorescence)
Assay type: biochemical
Set-up: purchased Cayman 10006270
Conditions: 37° C., 30 mins; for inhibition at 0.1 µM: read-out: Renin inhibition (percent inhibition of renin activity) at 0.1 μM; for inhibition at 1 µM: compound concentration 1 μM, read-out: Renin inhibition (percent inhibition of renin activity) at 1 μM
Protocol: In-Vitro Renin Inhibition Assay
The enzymatic in vitro assay was performed in 96 well polypropylene plate (Nunc), using a modified Renin inhibitor screening assay protocol (Cayman, cat no: 10006270). The reaction system comprised assay buffer containing 50 mM Tris-HCL, pH=8.0 & 100 mM sodium chloride, human recombinant renin (1:20 diluted with fixed activity), synthetic renin substrates (9.5 μM) and different concentrations of renin inhibitors in DMSO in a total reaction system of 100 μl. The entire incubation mixture were incubated at 37° C. for 30 mins and the fluorescence was read in kinetic mode using excitation wavelengths of 335-345 nm and emission wavelengths of 485-510 nm. Enzyme inhibition was determined by percent inhibition of renin activity.

inhibition at 0.1 µM (compound concentration 0.1 μM) [%] | inhibition at 1 µM [%] | Renin inhibition (percent inhibition of renin activity) at 0.1 μM (compound concentration 0.1 μM) | Compound
36.3 | – | – | NCC(Cc1ccc(OCCOc2ccc(Cl)cc2F)cc1)C(=O)N1CCCc2cc(F)ccc21 (stereo not shown) [Example 39, 3-Amino-2-{4-[2-(4-chloro-2-fluoro-phenoxy)-ethoxy]-benzyl}-1-(6-fluoro-3,4-dihydro-2H-quinolin-1-yl)-propan-1-one hydrochloride]
35.4 | – | – | NCC(Cc1ccc(OCCOc2ccc(Cl)cc2Cl)cc1)C(=O)N1CCCc2cc(C(F)(F)F)ccc21 (stereo not shown) [Example 38, 3-Amino-2-{4-[2-(2,4-dichloro-phenoxy)-ethoxy]-benzyl}-1-(6-trifluoromethyl-3,4-dihydro-2H-quinolin-1-yl)-propan-1-one hydrochloride chloride]
– | 58.5 | – | COc1cc(CC(CN)C(=O)N2CCCc3ccccc32)ccc1OCCOc1c(Cl)cc(C)cc1Cl (stereo not shown) [Example 48, 3-Amino-2-{4-[2-(2,6-dichloro-4-methyl-phenoxy)-ethoxy]-3-methoxy-benzyl}-1-(3,4-dihydro-2H-quinolin-1-yl)-propan-1-one hydrochloride]
36.4 | – | – | NCC(Cc1ccc(OCCOc2ccc(Cl)cc2Cl)cc1)C(=O)N1CCCc2cc(F)ccc21 (stereo not shown) [Example 37, 3-Amino-2-{4-[2-(2,4-dichloro-phenoxy)-ethoxy]-benzyl}-1-(6-fluoro-3,4-dihydro-2H-quinolin-1-yl)-propan-1-one hydrochloride]
71 | 82.5 | – | Cc1cc(Cl)c(OCCOc2ccc(CC(CN)C(=O)N3CCCCC3)cn2)c(Cl)c1 (stereo not shown) [Example 42, 2-Aminomethyl-3-{6-[2-(2,6-dichloro-4-methyl-phenoxy)-ethoxy]-pyridin-3-yl}-1-piperidin-1-yl-propan-1-one]
38.9 | – | – | NCC(Cc1ccc(OCCOc2ccc(Cl)cc2F)cc1)C(=O)N1CCCc2cc(C(F)(F)F)ccc21 (stereo not shown) [Example 40, 3-Amino-2-{4-[2-(4-chloro-2-fluoro-phenoxy)-ethoxy]-benzyl}-1-(6-trifluoromethyl-3,4-dihydro-2H-quinolin-1-yl)-propan-1-one hydrochloride]
63.1 | 96.3 | – | Cc1cc(Cl)c(OCCOc2ccc(CC(CN)C(=O)N3CCCc4cc(F)ccc43)cn2)c(Cl)c1 (stereo not shown) [Example 44, 3-Amino-2-{6-[2-(2,6-dichloro-4-methyl-phenoxy)-ethoxy]-pyridin-3-ylmethyl}-1-(6-fluoro-3,4-dihydro-2H-quinolin-1-yl)-propan-1-one hydrochloride]
45 | – | – | NCC(Cc1ccc(OCCOc2ccc(F)cc2F)cc1)C(=O)N1CCCc2cc(C(F)(F)F)ccc21 (stereo not shown) [Example 36, 3-Amino-2-{4-[2-(2,4-difluoro-phenoxy)-ethoxy]-benzyl}-1-(6-trifluoromethyl-3,4-dihydro-2H-quinolin-1-yl)-propan-1-one hydrochloride]

Second part, the compound before the results:

Compound | inhibition at 0.1 µM (compound concentration 0.1 μM) [%] | inhibition at 1 µM [%] | Renin inhibition (percent inhibition of renin activity) at 0.1 μM (compound concentration 0.1 μM)
COC1CCCN(C(=O)C(CN)Cc2ccc(OCCOc3c(Cl)cc(C)cc3Cl)cc2)C1 (stereo not shown) [Example 30, 2-Aminomethyl-3-{4-[2-(2,6-dichloro-4-methyl-phenoxy)-ethoxy]-phenyl}-1-(3-methoxy-piperidin-1-yl)-propan-1-one hydrochloride] | 92.8 | 92.9 | –
Cc1ccc(OCCOc2ccc(CC(CN)C(=O)N3CCCc4cc(C(F)(F)F)ccc43)cc2)c(Cl)c1 (stereo not shown) [Example 33, 3-Amino-2-{4-[2-(2-chloro-4-methyl-phenoxy)-ethoxy]-benzyl}-1-(6-trifluoromethyl-3,4-dihydro-2H-quinolin-1-yl)-propan-1-one] | 92.9 | 89.2 | –
Cc1cc(Cl)c(OCCOc2ccc(CC(CN)C(=O)N3CCCc4cc(Br)ccc43)cc2)c(Cl)c1 (stereo not shown) [Example 6, 3-Amino-1-(6-bromo-3,4-dihydro-2H-quinolin-1-yl)-2-{4-[2-(2,6-dichloro-4-methyl-phenoxy)-ethoxy]-benzyl}-propan-1-one] | – | 86.5 | –
Cc1cc(Cl)c(OCCOc2ccc(CC(CN)C(=O)N3CCCc4cc(C(F)(F)F)ccc43)cc2)c(Cl)c1 (stereo not shown) [Example 15, 3-Amino-2-{4-[2-(2,6-dichloro-4-methyl-phenoxy)-ethoxy]-benzyl}-1-(6-trifluoromethyl-3,4-dihydro-2H -quinolin-1-yl)-propan-1-one] | 99.2 | 98.7 | –
Cc1cc(Cl)c(OCCOc2ccc(CC(CN)C(=O)N3CCC(C)CC3)cc2)c(Cl)c1 (stereo not shown) [Example 18, 3-Amino-2-{4-[2-(2,6-dichloro-4-methyl-phenoxy)-ethoxy]-benzyl}-1-(4-methyl-piperidin-1-yl)-propan-1-one] | – | 65.8 | –
COc1ccc2c(c1)CCCN2C(=O)C(CN)Cc1ccc(OCCOc2c(Cl)cc(C)cc2Cl)cc1 (stereo not shown) [Example 13, 3-Amino-2-{4-[2-(2,6-dichloro-4-methyl-phenoxy)-ethoxy]-benzyl}-1-(6-methoxy-3,4-dihydro-2H-quinolin-1-yl)-propan-1-one] | 32.1 | 96.5 | –
Cc1cc(Cl)c(OCCOc2ccc(CC(CN)C(=O)N3CCCc4cc(C)ccc43)cc2)c(Cl)c1 (stereo not shown) [Example 16, 3-Amino-2-{4-[2-(2,6-dichloro-4-methyl-phenoxy)-ethoxy]-benzyl}-1-(6-methyl-3,4-dihydro-2H-quinolin-1-yl)-propan-1-one] | 52.6 | 87.4 | –
Cc1cc(Cl)c(OCCOc2ccc(CC(CN)C(=O)N3CCOCC3)cc2)c(Cl)c1 (stereo not shown) [Example 25, 3-Amino-2-{4-[2-(2,6-dichloro-4-methyl-phenoxy)-ethoxy]-benzyl}-1-morpholin-4-yl-propan-1-one hydrochloride] | 45.1 | 76.4 | –
Cc1cc(Cl)c(OCCOc2ccc(CC(CN)C(=O)N3CCCc4ccc(C)c(C)c43)cc2)c(Cl)c1 (stereo not shown) [Example 9, 3-Amino-2-{4-[2-(2,6-dichloro-4-methyl-phenoxy)-ethoxy]-benzyl}-1-(7,8-dimethyl-3,4-dihydro-2H-quinolin-1-yl)-propan-1-one] | 80.5 | 98.1 | –
Cc1cc(Cl)c(OCCOc2ccc(CC(CN)C(=O)N3CCCc4cc(OCC(F)(F)F)ccc43)cc2)c(Cl)c1 (stereo not shown) [Example 28, 3-Amino-2-{4-[2-(2,6-dichloro-4-methyl-phenoxy)-ethoxy]-benzyl}-1-[6-(2,2,2-trifluoro-ethoxy)-3,4-dihydro-2H-quinolin-1-yl]-propan-1-one hydrochloride] | 73.8 | – | –
Cc1cc(Cl)c(OCCOc2ccc(CC(CN)C(=O)N3CCOc4ccccc43)cc2)c(Cl)c1 (stereo not shown) [Example 4, 3-Amino-2-{4-[2-(2,6-dichloro-4-methyl-phenoxy)-ethoxy]-benzyl}-1-(2,3-dihydro-benzo[1,4]oxazin-4-yl)-propan-1-one] | – | 73.5 | –
COc1cc2c(cc1OC)CN(C(=O)C(CN)Cc1ccc(OCCOc3c(Cl)cc(C)cc3Cl)cc1)CC2 (stereo not shown) [Example 17, 2-Aminomethyl-3-{4-[2-(2,6-dichloro-4-methyl-phenoxy)-ethoxy]-phenyl}-1-(6,7-dimethoxy-3,4-dihydro-1H-isoquinolin-2-yl)-propan-1-one] | – | 53.6 | –
NCC(Cc1ccc(OCCOc2c(F)cccc2F)cc1)C(=O)N1CCCc2cc(F)ccc21 (stereo not shown) [Example 35, 3-Amino-2-{4-[2-(2,6-difluoro-phenoxy)-ethoxy]-benzyl}-1-(6-fluoro-3,4-dihydro-2H-quinolin-1-yl)-propan-1-one hydrochloride] | 26.3 | – | –
COC(=O)[C@H]1CCCN1C(=O)C(CN)Cc1ccc(OCCOc2c(Cl)cc(C)cc2Cl)cc1.Cl (stereo partly drawn) [Example 29, D-(2-Aminomethyl-3-{4-[2-(2,6-dichloro-4-methyl-phenoxy)-ethoxy]-phenyl}-propionyl)-pyrrolidine-2-carboxylic acid methyl ester hydrochloride] | – | – | 90.3
Cc1cc(Cl)c(OCCOc2ccc(CC(CN)C(=O)N3CCCC3)cc2)c(Cl)c1 (stereo not shown) [Example 23, 3-Amino-2-{4-[2-(2,6-dichloro-4-methyl-phenoxy)-ethoxy]-benzyl}-1-pyrrolidin-1-yl-propan-1-one] | 59.5 | 81.1 | –
Cc1cc(Cl)c(OCCOc2ccc(CC(CN)C(=O)N3CCCc4cc(F)ccc43)cc2)c(Cl)c1 (stereo not shown) [Example 20, 3-Amino-2-{4-[2-(2,6-dichloro-4-methyl-phenoxy)-ethoxy]-benzyl}-1-(6-fluoro-3,4-dihydro-2H-quinolin-1-yl)-propan-1-one] | 68 | 96.1 | –
NCC(Cc1ccc(OCCOc2c(F)cccc2F)cc1)C(=O)N1CCCc2cc(C(F)(F)F)ccc21 (stereo not shown) [Example 34, 3-Amino-2-{4-[2-(2,6-difluoro-phenoxy)-ethoxy]-benzyl}-1-(6-trifluoromethyl-3,4-dihydro-2H-quinolin-1-yl)-propan-1-one hydrochloride] | 31.2 | – | –
Cc1cc(Cl)c(OCCOc2ccc(CC(CN)C(=O)N3CCCc4cc(Cl)ccc43)cc2)c(Cl)c1 (stereo not shown) [Example 5, 3-Amino-1-(6-chloro-3,4-dihydro-2H-quinolin-1-yl)-2-{4-[2-(2,6-dichloro-4-methyl-phenoxy)-ethoxy]-benzyl}-propan-1-one] | – | 79.6 | –
